According to patent US6472348B1, “Pyridone derivatives and herbicides” (Kumiai Chemical Industry Co., Ltd., priority 1996, dated 2002):

Legend:
Format in all cases: in vivo
barnyardgrass (Ec) [1] = test: Test Example 1: herbicidal effects by paddy field soil treatment; conditions: 100 g of the active ingredient per 10 ares, 21st day after the application, index 0-5 of Table 47;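 note: grade of growth control; 5 = at least 90%; 4 = 70 to 90%; 3 = 50 to 70%; 2 = 30 to 50%; 1 = 10 to 30%; 0 = under 10%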
Method in brief: (§1)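 Herbicidal effect was scored against a graded standard 21 days after treatment. Seeds were sown in puddled, leveled paddy soil flooded to 3 cm depth, and the active ingredient was applied at 100 g per 10 ares before greenhouse culture.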

bulrush (Sc) = test: as above; conditions: 100 g of the active ingredient per 10 ares, 21st day after the application, index 0-5 of Table 47;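 note: grade of growth control; 5 = at least 90%; 4 = 70 to 90%; 3 = 50 to 70%; 2 = 30 to 50%; 1 = 10 to 30%; 0 = under 10%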
Method in brief: as §1

monochoria (Mo) = test: as above; conditions: 100 g of the active ingredient per 10 ares, 21st day after the application, index 0-5 of Table 47;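 note: grade of growth control; 5 = at least 90%; 4 = 70 to 90%; 3 = 50 to 70%; 2 = 30 to 50%; 1 = 10 to 30%; 0 = under 10%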
Method in brief: as §1

Digitaria ciliaris (Di) = test: Test Example 2: herbicidal effects by upland field soil treatment; conditions: 100 g of the active ingredient per 10 ares, 21st day after the application, index 0-5 of Table 47;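 note: grade of growth control; 5 = at least 90%; 4 = 70 to 90%; 3 = 50 to 70%; 2 = 30 to 50%; 1 = 10 to 30%; 0 = under 10%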
From the text: (§2) (Test on Herbicidal Effects by Upland Field Soil Treatment)

barnyardgrass (Ec) [2] = test: as above; conditions: 100 g of the active ingredient per 10 ares, 21st day after the application, index 0-5 of Table 47
From the text: as §2

[3] = system: common lambsquarters (Ch); test: as above; conditions: 100 g of the active ingredient per 10 ares, 21st day after the application, index 0-5 of Table 47
From the text: as §2

pale smartweed (Po) [4] = test: as above; conditions: 100 g of the active ingredient per 10 ares, 21st day after the application, index 0-5 of Table 47
From the text: as §2

rice flatsedge (Ci) [5] = test: as above; conditions: 100 g of the active ingredient per 10 ares, 21st day after the application, index 0-5 of Table 47
From the text: as §2

slender amaranth (Am) [6] = test: as above; conditions: 100 g of the active ingredient per 10 ares, 21st day after the application, index 0-5 of Table 47
From the text: as §2

Diaitaria ciliaris (Di) = test: Test Example 3: herbicidal effects by upland field foliage treatment; set-up: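 grade of growth control; 5 = at least 90%; 4 = 70 to 90%; 3 = 50 to 70%; 2 = 30 to 50%; 1 = 10 to 30%; 0 = under 10%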; conditions: 100 g of the active ingredient per 10 ares, evaluated on the 14th day after treatment
Method in brief: (§3)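 Readout: visual herbicidal rating per defined standards, 14th day after treatment. Plants sown in sand (pot area 120 cm^2), soil-covered, greenhouse-cultured for 2 weeks prior to foliage application, then greenhouse-grown until scoring.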

barnyardgrass (Ec) [7] = test: as above; set-up: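 grade of growth control; 5 = at least 90%; 4 = 70 to 90%; 3 = 50 to 70%; 2 = 30 to 50%; 1 = 10 to 30%; 0 = under 10%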; conditions: 100 g of the active ingredient per 10 ares, evaluated on the 14th day after treatment
Method in brief: as §3

[8] = system: common lambsquarters (Ch); test: as above; set-up: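 grade of growth control; 5 = at least 90%; 4 = 70 to 90%; 3 = 50 to 70%; 2 = 30 to 50%; 1 = 10 to 30%; 0 = under 10%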; conditions: 100 g of the active ingredient per 10 ares, evaluated on the 14th day after treatment
Method in brief: as §3

pale smartweed (Po) [9] = test: as above; set-up: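 grade of growth control; 5 = at least 90%; 4 = 70 to 90%; 3 = 50 to 70%; 2 = 30 to 50%; 1 = 10 to 30%; 0 = under 10%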; conditions: 100 g of the active ingredient per 10 ares, evaluated on the 14th day after treatment
Method in brief: as §3

rice flatsedge (Ci) [10] = test: as above; set-up: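 grade of growth control; 5 = at least 90%; 4 = 70 to 90%; 3 = 50 to 70%; 2 = 30 to 50%; 1 = 10 to 30%; 0 = under 10%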; conditions: 100 g of the active ingredient per 10 ares, evaluated on the 14th day after treatment
Method in brief: as §3

slender amaranth (Am) [11] = test: as above; set-up: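 grade of growth control; 5 = at least 90%; 4 = 70 to 90%; 3 = 50 to 70%; 2 = 30 to 50%; 1 = 10 to 30%; 0 = under 10%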; conditions: 100 g of the active ingredient per 10 ares, evaluated on the 14th day after treatment
Method in brief: as §3

SMILES	Herbicidal effects Ec (barnyardgrass (Ec) [1])	Herbicidal effects Sc (bulrush (Sc))	Herbicidal effects Mo (monochoria (Mo))	Herbicidal effects Di (Digitaria ciliaris (Di))	Herbicidal effects Ec (barnyardgrass (Ec) [2])	Herbicidal effects Ch [3]	Herbicidal effects Po (pale smartweed (Po) [4])	Herbicidal effects Ci (rice flatsedge (Ci) [5])	Herbicidal effects Am (slender amaranth (Am) [6])	Herbicidal effects Di (Diaitaria ciliaris (Di))	Herbicidal effects Ec (barnyardgrass (Ec) [7])	Herbicidal effects Ch [8]	Herbicidal effects Po (pale smartweed (Po) [9])	Herbicidal effects Ci (rice flatsedge (Ci) [10])	Herbicidal effects Am (slender amaranth (Am) [11])
CCSC(=O)c1cc(-c2ccc(C(F)(F)F)n(C)c2=O)c(F)cc1Cl [1-67]	5	5	5	5	5	5	5	5	5	5	5	5	5	5	5
C=CCOc1cc(-c2cc(C)c(C(F)(F)F)n(C)c2=O)c(F)cc1Cl [1-77]	5	5	5	5	5	5	5	5	5	5	5	5	5	5	5
C#CC(C)Oc1cc(-c2cc(C)c(C(F)(F)F)n(C)c2=O)c(F)cc1Cl (stereo not drawn) [1-78]	5	5	5	5	5	5	5	5	5	5	5	5	5	5	5
Cc1cc(-c2cc(OC(C)C)c(Cl)cc2F)c(=O)n(C)c1C(F)(F)F [1-80]	5	5	5	5	5	5	5	5	5	5	5	5	5	5	5
COC(=O)COc1cc(-c2ccc(C(F)(F)F)n(C)c2=O)c(F)cc1Cl [1-99]	5	5	5	5	5	5	5	5	5	5	5	5	5	5	5
Cn1c(C(F)(F)F)ccc(-c2cc(OCC(=O)OC3CCCC3)c(Cl)cc2F)c1=O [1-102]	5	5	5	5	5	5	4	5	5	5	5	5	5	5	5
CCCOC(=O)COc1cc(-c2ccc(C(F)(F)F)n(C)c2=O)c(F)cc1Cl [1-104]	5	5	5	5	5	5	5	5	5	5	5	5	5	5	5
Cn1c(C(F)(F)F)ccc(-c2cc(OCC(=O)O)c(Cl)cc2F)c1=O [1-105]	5	5	5	5	5	5	5	5	5	5	5	5	5	5	5
Cn1c(C(F)(F)F)ccc(-c2cc(C3OCCO3)c(Cl)cc2F)c1=O [1-133]	5	5	5	5	5	5	5	5	5	5	5	5	5	5	5
Cn1c(C(F)(F)F)ccc(-c2cc(CO)c(Cl)cc2F)c1=O [1-135]	5	5	5	5	5	5	5	5	5	5	5	5	5	5	5
CCS(=O)(=O)N(C)c1cc(-c2ccc(C(F)(F)F)n(C)c2=O)c(F)cc1Cl [1-140]	5	5	5	5	5	5	5	5	5	5	4	5	5	5	5
Cn1c(C(F)(F)F)ccc(-c2cc(C(=O)[O-])c(Cl)cc2F)c1=O.[Na+] [1-144]	5	5	5	5	5	5	5	5	5	5	5	5	5	5	5
CCCCOC(=O)COc1cc(-c2ccc(C(F)(F)F)n(C)c2=O)c(F)cc1Cl [1-148]	5	5	5	5	5	5	5	5	5	5	5	5	5	5	5
